What was measured:
[1] = target: 3',5'-cyclic-AMP phosphodiesterase 4D (Homo sapiens, UniProt Q08499); assay type: functional
[2] = target: T1, Muscarinic acetylcholine receptor M2 (Homo sapiens, UniProt P08172); assay type: functional, cell-based
T1 sequence (P08172 whole entry): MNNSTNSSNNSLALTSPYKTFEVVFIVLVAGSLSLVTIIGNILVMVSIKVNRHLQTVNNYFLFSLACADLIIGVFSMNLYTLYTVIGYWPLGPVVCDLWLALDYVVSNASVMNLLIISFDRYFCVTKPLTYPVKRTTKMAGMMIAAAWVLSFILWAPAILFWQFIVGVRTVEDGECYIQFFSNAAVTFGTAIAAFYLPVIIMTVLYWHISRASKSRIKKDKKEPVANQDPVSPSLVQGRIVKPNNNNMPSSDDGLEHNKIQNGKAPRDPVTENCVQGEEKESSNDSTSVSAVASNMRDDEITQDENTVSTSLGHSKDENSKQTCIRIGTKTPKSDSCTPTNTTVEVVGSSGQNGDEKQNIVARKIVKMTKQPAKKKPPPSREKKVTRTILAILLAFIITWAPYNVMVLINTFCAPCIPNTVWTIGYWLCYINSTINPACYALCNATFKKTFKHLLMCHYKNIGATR

[3] = target: Voltage-gated inwardly rectifying potassium channel KCNH2 (Homo sapiens, UniProt Q12809); assay type: functional; details: read-out: AC50
[4] = target: Growth hormone secretagogue receptor type 1 (Homo sapiens, UniProt Q92847)
[5] = target: Gamma-aminobutyric acid receptor subunit alpha-1 (Rattus norvegicus, UniProt P62813); assay type: functional
[6] = target: T2, Amine oxidase [flavin-containing] A (Homo sapiens, UniProt P21397); assay type: functional
T2 sequence (P21397 whole entry): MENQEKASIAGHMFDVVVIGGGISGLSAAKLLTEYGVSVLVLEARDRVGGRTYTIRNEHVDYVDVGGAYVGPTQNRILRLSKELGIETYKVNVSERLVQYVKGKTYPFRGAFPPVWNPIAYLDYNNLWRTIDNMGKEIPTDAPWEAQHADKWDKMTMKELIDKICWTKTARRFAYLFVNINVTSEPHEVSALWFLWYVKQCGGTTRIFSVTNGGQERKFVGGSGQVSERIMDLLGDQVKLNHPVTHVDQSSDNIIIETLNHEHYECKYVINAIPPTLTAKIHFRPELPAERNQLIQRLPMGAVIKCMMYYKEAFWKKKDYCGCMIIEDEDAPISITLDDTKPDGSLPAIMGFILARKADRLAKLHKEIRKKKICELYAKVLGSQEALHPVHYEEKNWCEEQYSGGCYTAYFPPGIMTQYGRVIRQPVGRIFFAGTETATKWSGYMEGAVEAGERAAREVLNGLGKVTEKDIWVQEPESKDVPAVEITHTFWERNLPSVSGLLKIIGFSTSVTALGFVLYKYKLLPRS

[7] = target: T3, 5-hydroxytryptamine receptor 1A (Homo sapiens, UniProt P08908); assay type: functional, cell-based
T3 sequence (P08908 whole entry): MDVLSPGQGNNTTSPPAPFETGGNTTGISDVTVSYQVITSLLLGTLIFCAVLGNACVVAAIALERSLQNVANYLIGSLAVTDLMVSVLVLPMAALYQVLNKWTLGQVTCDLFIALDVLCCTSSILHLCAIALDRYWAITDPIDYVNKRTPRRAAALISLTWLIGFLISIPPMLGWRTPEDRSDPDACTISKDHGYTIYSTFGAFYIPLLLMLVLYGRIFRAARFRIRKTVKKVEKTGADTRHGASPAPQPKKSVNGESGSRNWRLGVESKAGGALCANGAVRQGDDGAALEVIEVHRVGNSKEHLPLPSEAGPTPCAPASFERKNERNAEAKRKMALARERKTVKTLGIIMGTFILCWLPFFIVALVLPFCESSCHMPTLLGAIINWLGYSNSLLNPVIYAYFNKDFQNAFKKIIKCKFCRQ

[8] = target: T4, Alpha-2A adrenergic receptor (Homo sapiens, UniProt P08913); assay type: functional, cell-based
T4 sequence (P08913 whole entry): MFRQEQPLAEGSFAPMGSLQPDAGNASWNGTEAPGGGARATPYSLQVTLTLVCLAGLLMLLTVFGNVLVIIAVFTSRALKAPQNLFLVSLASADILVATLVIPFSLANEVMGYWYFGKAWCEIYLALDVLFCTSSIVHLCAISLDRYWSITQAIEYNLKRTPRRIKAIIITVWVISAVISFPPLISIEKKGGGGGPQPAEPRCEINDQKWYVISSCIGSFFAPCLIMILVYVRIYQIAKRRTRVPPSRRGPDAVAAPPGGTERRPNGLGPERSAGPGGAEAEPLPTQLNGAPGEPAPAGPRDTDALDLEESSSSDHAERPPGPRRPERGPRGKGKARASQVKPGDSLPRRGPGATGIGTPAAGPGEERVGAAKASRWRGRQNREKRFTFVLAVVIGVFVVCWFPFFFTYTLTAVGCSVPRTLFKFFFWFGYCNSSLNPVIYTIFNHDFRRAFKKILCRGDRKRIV

[9] = target: T5, 5-hydroxytryptamine receptor 2C (Homo sapiens, UniProt P28335)
T5 sequence (P28335 whole entry): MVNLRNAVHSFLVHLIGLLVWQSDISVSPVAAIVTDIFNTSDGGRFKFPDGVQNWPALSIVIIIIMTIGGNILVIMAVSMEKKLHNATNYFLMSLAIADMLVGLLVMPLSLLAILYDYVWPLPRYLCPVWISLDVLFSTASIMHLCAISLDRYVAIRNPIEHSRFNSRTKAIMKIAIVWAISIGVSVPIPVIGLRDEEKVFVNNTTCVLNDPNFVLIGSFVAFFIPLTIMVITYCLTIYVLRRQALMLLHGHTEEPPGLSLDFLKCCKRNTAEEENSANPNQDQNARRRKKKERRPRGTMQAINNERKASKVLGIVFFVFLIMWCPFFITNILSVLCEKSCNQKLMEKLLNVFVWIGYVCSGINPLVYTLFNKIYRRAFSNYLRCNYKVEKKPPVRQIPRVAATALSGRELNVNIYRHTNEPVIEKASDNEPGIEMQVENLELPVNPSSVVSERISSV

[10] = target: Sodium-dependent noradrenaline transporter (Homo sapiens, UniProt P23975)
D(1A) dopamine receptor = D(1A) dopamine receptor (Homo sapiens, UniProt P21728); assay type: functional, cell-based
Note: assay procedure not described here.

3',5'-cyclic-AMP phosphodiesterase 4D, sequence (Q08499 whole entry): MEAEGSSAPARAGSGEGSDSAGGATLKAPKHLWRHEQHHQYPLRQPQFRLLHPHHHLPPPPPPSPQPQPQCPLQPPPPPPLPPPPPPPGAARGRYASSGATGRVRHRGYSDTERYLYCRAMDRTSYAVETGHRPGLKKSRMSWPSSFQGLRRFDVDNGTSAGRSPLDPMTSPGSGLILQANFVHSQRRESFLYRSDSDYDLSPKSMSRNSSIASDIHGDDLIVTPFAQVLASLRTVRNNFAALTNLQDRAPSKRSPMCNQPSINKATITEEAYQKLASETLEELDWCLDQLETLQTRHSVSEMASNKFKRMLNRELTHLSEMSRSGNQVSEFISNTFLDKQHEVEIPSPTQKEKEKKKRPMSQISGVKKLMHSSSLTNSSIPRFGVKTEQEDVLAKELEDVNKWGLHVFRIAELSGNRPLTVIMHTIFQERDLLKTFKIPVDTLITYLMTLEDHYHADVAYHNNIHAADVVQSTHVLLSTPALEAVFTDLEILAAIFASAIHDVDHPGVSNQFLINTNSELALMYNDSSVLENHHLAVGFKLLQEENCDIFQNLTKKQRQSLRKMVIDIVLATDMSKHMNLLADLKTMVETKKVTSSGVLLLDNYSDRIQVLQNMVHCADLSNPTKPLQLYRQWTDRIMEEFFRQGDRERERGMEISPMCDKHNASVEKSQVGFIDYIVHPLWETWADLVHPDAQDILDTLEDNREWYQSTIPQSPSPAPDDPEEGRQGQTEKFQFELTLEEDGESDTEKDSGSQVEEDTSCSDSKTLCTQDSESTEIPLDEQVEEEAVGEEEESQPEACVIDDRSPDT
Sodium-dependent noradrenaline transporter, sequence (P23975 whole entry): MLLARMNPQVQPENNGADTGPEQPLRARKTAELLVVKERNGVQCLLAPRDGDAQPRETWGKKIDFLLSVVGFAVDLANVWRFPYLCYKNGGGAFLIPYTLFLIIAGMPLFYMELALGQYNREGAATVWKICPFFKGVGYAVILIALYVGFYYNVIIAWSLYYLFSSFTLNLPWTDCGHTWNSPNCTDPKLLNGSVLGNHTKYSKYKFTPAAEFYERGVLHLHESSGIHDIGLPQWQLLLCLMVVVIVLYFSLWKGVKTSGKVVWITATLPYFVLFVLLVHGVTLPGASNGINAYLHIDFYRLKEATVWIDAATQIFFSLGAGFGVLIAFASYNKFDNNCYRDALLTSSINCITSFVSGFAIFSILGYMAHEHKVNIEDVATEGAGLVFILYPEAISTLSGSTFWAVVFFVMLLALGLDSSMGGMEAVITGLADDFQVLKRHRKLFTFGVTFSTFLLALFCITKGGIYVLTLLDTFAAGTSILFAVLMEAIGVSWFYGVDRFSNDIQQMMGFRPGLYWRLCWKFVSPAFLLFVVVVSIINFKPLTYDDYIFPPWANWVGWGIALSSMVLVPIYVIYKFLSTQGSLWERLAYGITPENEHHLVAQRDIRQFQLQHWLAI
Gamma-aminobutyric acid receptor subunit alpha-1, sequence (P62813 whole entry): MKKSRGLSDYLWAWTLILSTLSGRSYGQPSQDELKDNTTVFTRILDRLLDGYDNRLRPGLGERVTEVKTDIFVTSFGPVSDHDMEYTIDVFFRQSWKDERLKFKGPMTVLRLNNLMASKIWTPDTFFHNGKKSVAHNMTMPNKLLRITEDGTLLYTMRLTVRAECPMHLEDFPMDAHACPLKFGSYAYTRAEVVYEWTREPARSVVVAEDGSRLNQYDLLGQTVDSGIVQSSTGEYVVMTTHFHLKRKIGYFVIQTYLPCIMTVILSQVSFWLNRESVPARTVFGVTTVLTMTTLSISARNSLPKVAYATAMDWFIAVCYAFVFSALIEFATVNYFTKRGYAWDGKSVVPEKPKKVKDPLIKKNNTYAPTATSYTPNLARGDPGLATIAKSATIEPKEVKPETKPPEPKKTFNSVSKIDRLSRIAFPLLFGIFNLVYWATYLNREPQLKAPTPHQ
Voltage-gated inwardly rectifying potassium channel KCNH2, sequence (Q12809 whole entry): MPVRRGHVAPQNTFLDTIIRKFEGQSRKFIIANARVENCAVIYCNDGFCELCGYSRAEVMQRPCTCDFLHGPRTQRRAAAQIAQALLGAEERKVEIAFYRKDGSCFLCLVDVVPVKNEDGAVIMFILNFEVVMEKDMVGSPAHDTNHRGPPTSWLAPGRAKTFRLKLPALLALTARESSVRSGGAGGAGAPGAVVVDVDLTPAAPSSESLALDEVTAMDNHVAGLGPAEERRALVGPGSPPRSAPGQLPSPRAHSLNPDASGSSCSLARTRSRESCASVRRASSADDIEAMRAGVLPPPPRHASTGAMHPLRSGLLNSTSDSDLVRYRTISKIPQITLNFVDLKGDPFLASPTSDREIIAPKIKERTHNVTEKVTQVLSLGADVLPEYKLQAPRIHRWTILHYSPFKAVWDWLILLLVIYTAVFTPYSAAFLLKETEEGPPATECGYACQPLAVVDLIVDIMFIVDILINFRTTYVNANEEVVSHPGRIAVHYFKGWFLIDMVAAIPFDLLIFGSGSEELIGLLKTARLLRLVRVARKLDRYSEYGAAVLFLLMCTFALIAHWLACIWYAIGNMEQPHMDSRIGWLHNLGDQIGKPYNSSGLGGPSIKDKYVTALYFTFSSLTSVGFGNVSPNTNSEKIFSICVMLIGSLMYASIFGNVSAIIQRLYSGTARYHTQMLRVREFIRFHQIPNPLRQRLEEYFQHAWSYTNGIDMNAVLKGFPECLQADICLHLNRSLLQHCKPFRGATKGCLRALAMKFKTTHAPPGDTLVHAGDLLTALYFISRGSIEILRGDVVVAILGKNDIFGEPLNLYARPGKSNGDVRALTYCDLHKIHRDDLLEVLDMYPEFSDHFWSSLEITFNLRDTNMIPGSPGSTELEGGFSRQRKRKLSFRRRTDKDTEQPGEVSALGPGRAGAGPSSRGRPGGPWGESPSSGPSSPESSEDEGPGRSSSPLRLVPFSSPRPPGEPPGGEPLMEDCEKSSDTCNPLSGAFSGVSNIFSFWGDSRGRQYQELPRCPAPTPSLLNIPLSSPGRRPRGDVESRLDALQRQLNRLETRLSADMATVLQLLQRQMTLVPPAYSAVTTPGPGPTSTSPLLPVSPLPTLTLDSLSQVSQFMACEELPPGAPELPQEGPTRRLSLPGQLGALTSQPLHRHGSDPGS
D(1A) dopamine receptor, sequence (P21728 whole entry): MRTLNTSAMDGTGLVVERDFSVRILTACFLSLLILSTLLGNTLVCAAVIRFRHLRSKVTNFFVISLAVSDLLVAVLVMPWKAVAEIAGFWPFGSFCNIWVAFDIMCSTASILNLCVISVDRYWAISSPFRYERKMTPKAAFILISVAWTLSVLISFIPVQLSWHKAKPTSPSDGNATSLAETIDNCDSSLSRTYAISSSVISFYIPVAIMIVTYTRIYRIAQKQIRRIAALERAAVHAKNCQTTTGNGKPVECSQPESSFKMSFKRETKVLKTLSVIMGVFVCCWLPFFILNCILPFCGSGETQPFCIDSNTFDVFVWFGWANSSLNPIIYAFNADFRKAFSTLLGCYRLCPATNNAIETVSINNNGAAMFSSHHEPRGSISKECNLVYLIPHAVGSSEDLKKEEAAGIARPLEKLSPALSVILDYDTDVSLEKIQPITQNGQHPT
Growth hormone secretagogue receptor type 1, sequence (Q92847 whole entry): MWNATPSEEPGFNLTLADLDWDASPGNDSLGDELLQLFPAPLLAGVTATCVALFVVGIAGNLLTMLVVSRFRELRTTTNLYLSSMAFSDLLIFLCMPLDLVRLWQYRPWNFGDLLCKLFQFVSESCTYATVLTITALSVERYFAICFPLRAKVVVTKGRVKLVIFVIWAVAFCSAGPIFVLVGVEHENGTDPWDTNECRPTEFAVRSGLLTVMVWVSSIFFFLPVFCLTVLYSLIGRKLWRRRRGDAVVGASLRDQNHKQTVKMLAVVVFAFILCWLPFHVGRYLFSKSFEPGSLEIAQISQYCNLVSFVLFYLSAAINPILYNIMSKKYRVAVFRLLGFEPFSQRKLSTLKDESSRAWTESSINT

Structure (SMILES) | AC50 [1] [µM] | AC50 [2] [µM] | AC50 [3] [µM] | AC50 [4] [µM] | AC50 [5] [µM] | AC50 [6] [µM] | AC50 [7] [µM] | AC50 [8] [µM] | AC50 [9] [µM] | AC50 [10] [µM] | AC50 (D(1A) dopamine receptor) [µM]
CC(C)NCC(O)COc1ccc(COCCOC(C)C)cc1 (stereo not given) [BISOPROLOL] | > 30 | > 10 | > 30 | > 30 | > 10 | > 10 | > 10 | > 10 | > 30 | > 10 | > 10
CC(C)C(=O)Nc1ccc([N+](=O)[O-])c(C(F)(F)F)c1 [FLUTAMIDE] | > 30 | > 10 | 2.53 | > 30 | > 10 | > 30 | > 10 | > 10 | > 30 | > 10 | > 30
CS(=O)(=O)c1ccc([C@@H](O)[C@@H](CO)NC(=O)C(Cl)Cl)cc1 [THIAMPHENICOL] | > 30 | > 30 | > 30 | > 30 | > 30 | > 30 | > 30 | > 30 | > 30 | > 30 | > 30
CC(C)(C(=O)c1cccnc1)c1cccnc1 [METYRAPONE] | > 30 | > 10 | > 30 | > 10 | > 10 | > 10 | > 10 | > 10 | > 30 | > 10 | > 10
CC[C@H](C)C(=O)O[C@H]1C[C@H](O)C=C2C=C[C@H](C)[C@H](CC[C@@H](O)C[C@@H](O)CC(=O)O)[C@H]21 [PRAVASTATIN] | > 30 | > 30 | > 30 | > 30 | > 30 | > 30 | > 30 | > 30 | > 30 | > 30 | > 30
CO/N=C(\C(=O)N[C@@H]1C(=O)N2C(C(=O)[O-])=C(C[N+]3(C)CCCC3)CS[C@H]12)c1csc(N)n1 | > 300 | > 300 | > 300 | > 300 | > 300 | > 300 | > 300 | > 300 | > 300 | > 300 | > 300
CCOC(=O)[C@H](CCc1ccccc1)N[C@@H](C)C(=O)N1CCC[C@H]1C(=O)O | > 10 | > 10 | > 30 | > 30 | > 10 | > 10 | > 10 | > 10 | > 10 | > 10 | > 10
OCCN1CCN(CCCN2c3ccccc3C=Cc3ccccc32)CC1 [OPIPRAMOL] | > 30 | > 30 | 14 | > 30 | > 30 | > 30 | > 30 | > 30 | > 30 | > 30 | > 30
CCCS(=O)(=O)Nc1ccc(F)c(C(=O)c2c[nH]c3ncc(-c4ccc(Cl)cc4)cc23)c1F [VEMURAFENIB] | > 30 | > 30 | > 30 | > 30 | > 30 | > 30 | > 30 | > 30 | > 30 | > 30 | > 30
CC(C(=O)O)c1ccc(N2CC=CC2)c(Cl)c1 (stereo not given) [PIRPROFEN] | > 30 | > 10 | > 30 | > 30 | > 10 | > 10 | > 10 | > 10 | > 30 | > 10 | > 10
CC(C)Cc1ccc(CC(=O)O)cc1 [IBUFENAC] | > 30 | > 30 | > 30 | > 30 | > 30 | > 30 | > 30 | > 30 | > 30 | > 30 | > 30
C[C@H]1O[C@H](O[C@H]2[C@H](O)[C@@H](O)[C@@H](O[C@H]3[C@H](O)[C@@H](O)C(O)O[C@@H]3CO)O[C@@H]2CO)[C@H](O)[C@@H](O)[C@@H]1N[C@H]1C=C(CO)[C@@H](O)[C@H](O)[C@H]1O (stereo not given in full) [ACARBOSE] | > 30 | > 10 | > 30 | > 30 | > 10 | > 10 | > 30 | > 30 | > 30 | > 30 | > 10
NC[C@H]1O[C@H](O[C@H]2[C@H](O)[C@@H](O[C@H]3O[C@H](CO)[C@@H](O)[C@H](N)[C@H]3O)[C@H](N)C[C@@H]2N)[C@H](O)[C@@H](O)[C@@H]1O [KANAMYCIN] | > 30 | > 10 | > 30 | > 10 | > 10 | > 30 | > 10 | > 10 | > 30 | > 10 | > 30
CCc1ccc(CCOc2ccc(CC3SC(=O)NC3=O)cc2)nc1 (stereo not given) [PIOGLITAZONE] | > 10 | > 10 | > 30 | > 30 | > 10 | > 10 | > 10 | > 10 | > 10 | > 30 | > 10
C[C@H]1C[C@@H]2[C@H]([C@@H](O)C[C@@]3(C)[C@H]2CC[C@]3(O)C(=O)CO)[C@@]2(C)C=CC(=O)C=C12 [METHYLPREDNISOLONE] | 16 | > 10 | > 30 | > 10 | > 10 | > 30 | > 10 | > 10 | > 30 | > 10 | > 30

From ChEMBL document CHEMBL5291721, “A preclinical secondary pharmacology resource illuminates target-adverse drug reaction associations of marketed drugs” (Nat Commun, 2023)
